In US20230059136A1, “THE COMPOUNDS AND COMPOSITIONS FOR TREATING CONDITIONS ASSOCIATED WITH NLRP ACTIVITY” (Novartis AG, priority 2018, published 2023):
pIC50: −log10 of the molar value.

tested on: IL-1β production in PMA-differentiated THP-1 cells; assay: IL-1β production in PMA-differentiated THP-1 cells stimulated with gramicidin (hTHP-1 assay containing 2% fetal bovine serum); format: cell-based, human; settings: Table B1; 2% fetal bovine serum; class symbols; read-out: hTHP-1 IC50 (Average IC50 of compounds in hTHP-1 assay)
Description: Procedure 1: IL-1β Production in PMA-Differentiated THP-1 Cells Stimulated with Gramicidin.
THP-1 cells were purchased from the American Type Culture Collection and sub-cultured according to instructions from the supplier. Cells were cultured in complete RPMI 1640 (containing 10% heat inactivated FBS, penicillin (100 units/ml) and streptomycin (100 μg/ml)), and maintained in log phase prior to experimental setup. Prior to the experiment, compounds were dissolved in dimethyl sulfoxide (DMSO) to generate a 30 mM stock. The compound stock was first pre-diluted in DMSO to 3, 0.34, 0.042 and 0.0083 mM intermediate concentrations and subsequently spotted using Echo550 liquid handler into an empty 384-well assay plate to achieve desired final concentration (e.g. 100, 33, 11, 3.7, 1.2, 0.41, 0.14, 0.046, 0.015, 0.0051, 0.0017 μM). DMSO was backfilled in the plate to achieve a final DMSO assay concentration of 0.37%. The plate was then sealed and stored at room temperature until required.
THP-1 cells were treated with PMA (Phorbol 12-myristate 13-acetate) (20 ng/ml) for 16-18 hours. On the day of the experiment the media was removed and adherent cells were detached with trypsin for 5 minutes. Cells were then harvested, washed with complete RPMI 1640, spun down, and resuspended in RPMI 1640 (containing 2% heat inactivated FBS, penicillin (100 units/ml) and streptomycin (100 μg/ml). The cells were plated in the 384-well assay plate containing the spotted compounds at a density of 50,000 cells/well (final assay volume 50 μl). Cells were incubated with compounds for 1 hour and then stimulated with gramicidin (5 μM) (Enzo) for 2 hours. Plates were then centrifuged at 340 g for 5 min. Cell free supernatant (40 μL) was collected using a 96-channel PlateMaster (Gilson) and the production of IL-1β was evaluated by HTRF (cisbio). The plates were incubated for 18 h at 4° C. and read using the preset HTRF program (donor emission at 620 nm, acceptor emission at 668 nm) of the SpectraMax i3x spectrophotometer (Molecular Devices, software SoftMax 6). A vehicle only control and a dose titration of CRID3 (100-0.0017 μM) were run concurrently with each experiment.
Procedure 2: IL-1β Production in PMA-Differentiated THP-1 Cells Stimulated with Gramicidin.
THP-1 cells were purchased from the American Type Culture Collection and sub-cultured according to instructions from the supplier. Prior to experiments, cells were cultured in complete RPMI 1640 (containing 10% heat inactivated FBS, penicillin (100 units/ml) and streptomycin (100 μg/ml)), and maintained in log phase prior to experimental setup. Prior to the experiment THP-1 were treated with PMA (Phorbol 12-myristate 13-acetate) (20 ng/ml) for 16-18 hours. Compounds were dissolved in dimethyl sulfoxide (DMSO) to generate a 30 mM stock. On the day of the experiment the media was removed and adherent cells were detached with trypsin for 5 minutes. Cells were then harvested, washed with complete RPMI 1640, spun down, resuspended in RPMI 1640 (containing 2% heat inactivated FBS, penicillin (100 units/ml) and streptomycin (100 μg/ml). The cells were plated in a 384-well plate at a density of 50,000 cells/well (final assay volume 50 μl). Compounds were first dissolved in assay medium to obtain a 5× top concentration of 500 μM. 10 step dilutions (1:3) were then undertaken in assay medium containing 1.67% DMSO. 5× compound solutions were added to the culture medium to achieve desired final concentration (e.g. 100, 33, 11, 3.7, 1.2, 0.41, 0.14, 0.046, 0.015, 0.0051, 0.0017 μM). Final DMSO concentration was at 0.37%. Cells were incubated with compounds for 1 hour and then stimulated with gramicidin (5 μM) (Enzo) for 2 hours. Plates were then centrifuged at 340 g for 5 min. Cell free supernatant (40 μL) was collected using a 96-channel PlateMaster (Gilson) and the production of IL-1β was evaluated by HTRF (cisbio). A vehicle only control and a dose titration of CRID3 (100-0.0017 μM) were run concurrently with each experiment. […]

Row | Structure (SMILES) | pIC50
1 | CC(C)c1cc(C#N)cc(C(C)C)c1CC(=O)N=S(N)(=O)c1ncc(C(C)(C)O)s1 (single isomer, unassigned) [Example 82, (R)- or (S)-2-(4-cyano-2,6-diisopropylphenyl)-N-(5-(2-hydroxypropan-2-yl)thiazol-2-ylsulfonimidoyl)acetamide] | 4.52 to 5.30
2 | CC(C)c1cc(C#N)cc(C(C)C)c1CC(=O)N=S(N)(=O)c1ncc(C(C)(C)O)s1 (single isomer, unassigned) [Example 83, (S)- or (R)-2-(4-cyano-2,6-diisopropylphenyl)-N-(5-(2-hydroxypropan-2-yl)thiazol-2-ylsulfonimidoyl)acetamide] | 6.70 to 7.40
3 | COCc1cc(C(C)C)c(CC(=O)N=S(N)(=O)c2cc(C(C)(C)O)cs2)c(C(C)C)c1 (single isomer, unassigned) [Example 157, (R) or (S)-N-(amino(4-(2-hydroxypropan-2-yl)thiophen-2-yl)(oxo)-λ^6-sulfaneylidene)-2-(2,6-diisopropyl-4-(methoxymethyl)phenyl)acetamide] | 7.40 to 8.10
4 | COCc1cc(C(C)C)c(CC(=O)N=S(N)(=O)c2cc(C(C)(C)O)cs2)c(C(C)C)c1 (single isomer, unassigned) [Example 158, (S) or (R)-N-(amino(4-(2-hydroxypropan-2-yl)thiophen-2-yl)(oxo)-λ^6-sulfaneylidene)-2-(2,6-diisopropyl-4-(methoxymethyl)phenyl)acetamide] | 5.30 to 6.00
5 | CC(C)c1ccc(F)c(C(C)C)c1CC(=O)N=S(N)(=O)c1cc(C(C)(C)O)cs1 (single isomer, unassigned) [Example 159, (R) or (S)-N-(amino(4-(2-hydroxypropan-2-yl)thiophen-2-yl)(oxo)-λ^6-sulfaneylidene)-2-(3-fluoro-2,6-diisopropylphenyl) acetamide] | 6.70 to 7.40
6 | CC(C)c1ccc(F)c(C(C)C)c1CC(=O)N=S(N)(=O)c1cc(C(C)(C)O)cs1 (single isomer, unassigned) [Example 160, (S) or (R)-N-(amino(4-(2-hydroxypropan-2-yl)thiophen-2-yl)(oxo)-λ^6-sulfaneylidene)-2-(3-fluoro-2,6-diisopropylphenyl) acetamide] | 6.00 to 6.70

Continued, values first:

Row | pIC50 | Structure (SMILES)
7 | 6.00 to 6.70 | CC(C)c1cc(C(F)F)cc(C(C)C)c1CC(=O)N=S(N)(=O)c1sc(C(C)(C)O)cc1F (single isomer, unassigned) [Example 81, (R)- or (S)-2-(4-(difluoromethyl)-2,6-diisopropylphenyl)-N-(3-fluoro-5-(2-hydroxypropan-2-yl)thiophen-2-ylsulfonimidoyl)acetamide]
8 | 6.70 to 7.40 | Cc1nc(C(C)(C)O)sc1S(N)(=O)=NC(=O)Cc1c(C(C)C)cc(OC(F)F)cc1C(C)C (single isomer, unassigned) [Example 84, (S)- or (R)-2-(4-(difluoromethoxy)-2,6-diisopropylphenyl)-N-(2-(2-hydroxypropan-2-yl)-4-methylthiazol-5-ylsulfonimidoyl)acetamide]
9 | 4.52 to 5.30 | Cc1nc(C(C)(C)O)sc1S(N)(=O)=NC(=O)Cc1c(C(C)C)cc(OC(F)F)cc1C(C)C (single isomer, unassigned) [Example 85, (R)- or (S)-2-(4-(difluoromethoxy)-2,6-diisopropylphenyl)-N-(2-(2-hydroxypropan-2-yl)-4-methylthiazol-5-ylsulfonimidoyl)acetamide]
10 | 5.30 to 6.00 | CC(C)c1cc(C(F)F)cc(C(C)C)c1CC(=O)N=S(N)(=O)c1ccc(C(C)(C)O)cc1F (single isomer, unassigned) [Example 86, (S)- or (R)-2-(4-(difluoromethyl)-2,6-diisopropylphenyl)-N-(2-fluoro-4-(2-hydroxypropan-2-yl)phenylsulfonimidoyl) acetamide]
11 | 6.70 to 7.40 | CC(C)c1cc(C(F)F)cc(C(C)C)c1CC(=O)N=S(N)(=O)c1ccc(C(C)(C)O)cc1F (single isomer, unassigned) [Example 87, (R)- or (S)-2-(4-(difluoromethyl)-2,6-diisopropylphenyl)-N-(2-fluoro-4-(2-hydroxypropan-2-yl)phenylsulfonimidoyl) acetamide]
